Values after ≈ are worked out from the molar mass of the structure shown. Square brackets hold non-standard residues; d marks the D form. Peptide text beside a SMILES is read from it. * marks the point of attachment. X1 = N=C(N)NCCC[C@H](CN)C(=O)*; β3hK = NCCCC[C@H](N)CC(=O)O

The nature of the first series: Metabolic stability in human serum at 10 mg/ml at 37 degC after 2 hrs by HPLC analysis. It counts as ADME.
Conditions: not given
For the compound `CSCC[C@H](NC(=O)[C@@H](NC(=O)[C@@H](NC(=O)[C@H](Cc1ccc(O)cc1)NC(=O)[C@H](Cc1ccccc1)NC(=O)[C@@H](CN)CCCNC(=N)N)C(C)C)C(C)C)C(=O)N[C@@H](Cc1c[nH]c2ccccc12)C(=O)N[C@@H](CCCCN)CC(=O)O` (X1-FYVVMW[β3hK]-OH), the Stability entry was “Stable”.

Another series is described as follows: Aqueous solubility of compound in 50 mM sodium succinate buffer at 2 mM at pH 5 by 1D 1H NMR spectroscopic analysis. The following applies: 50 mM sodium succinate buffer, pH 5. It counts as physicochemical.
The solubility is the concentration that dissolves in the medium under given conditions. Lower therefore signals a poorly soluble substance. With `CSCC[C@H](NC(=O)[C@@H](NC(=O)[C@@H](NC(=O)[C@H](Cc1ccc(O)cc1)NC(=O)[C@H](Cc1ccccc1)NC(=O)[C@@H](N)CCCNC(=N)N)C(C)C)C(C)C)C(=O)N[C@@H](Cc1c[nH]c2ccccc12)C(=O)N[C@@H](CCCCN)C(=O)O`, the solubility at 2000 µM was determined as 30 µM (≈ 33.9 µg/mL).

Staying with this series, now noted: buffer, pH 5, 2000 µM.
Take `CSCC[C@H](NC(=O)[C@@H](NC(=O)[C@@H](NC(=O)[C@H](Cc1ccc(O)cc1)NC(=O)[C@H](Cc1ccccc1)NC(=O)[C@@H](CN)CCCNC(=N)N)C(C)C)C(C)C)C(=O)N[C@@H](Cc1c[nH]c2ccccc12)C(=O)N[C@@H](CCCCN)CC(=O)O` (X1-FYVVMW[β3hK]-OH): the solubility entry was “Insoluble”.

The nature of another series: Induction of programmed cell death in human MEC1 cells at 200 uM after 2 hrs by Annexin-V/propidium iodide staining based FACS analysis.
Conditions: not given
Format: functional. On the technique in general: A flow cytometer gives signals particle by particle.
As to `CSCC[C@H](NC(=O)[C@@H](NC(=O)[C@@H](NC(=O)[C@H](C)NC(=O)[C@H](Cc1ccccc1)NC(=O)[C@H](CCCNC(=N)N)NC(=O)[C@H](N)CCCCN)C(C)C)C(C)C)C(=O)N[C@@H](Cc1c[nH]c2ccccc12)C(=O)N[C@@H](CCCCN)C(=O)N[C@H](CCCCN)C(=O)O`, the Activity is 0%.
The same measure, in the same setting: for `CSCC[C@H](NC(=O)[C@H](C)NC(=O)[C@@H](NC(=O)[C@H](Cc1ccc(O)cc1)NC(=O)[C@H](Cc1ccccc1)NC(=O)[C@H](CCCNC(=N)N)NC(=O)[C@H](N)CCCCN)C(C)C)C(=O)N[C@@H](Cc1c[nH]c2ccccc12)C(=O)N[C@@H](CCCCN)C(=O)N[C@H](CCCCN)C(=O)O` (H-[dK]RFYVAMWK[dK]-OH) the value was 30%; for `CSCC[C@H](NC(=O)[C@@H](NC(=O)[C@H](C)NC(=O)[C@H](Cc1ccc(O)cc1)NC(=O)[C@H](Cc1ccccc1)NC(=O)[C@H](CCCNC(=N)N)NC(=O)[C@H](N)CCCCN)C(C)C)C(=O)N[C@@H](Cc1c[nH]c2ccccc12)C(=O)N[C@@H](CCCCN)C(=O)N[C@H](CCCCN)C(=O)O` (H-[dK]RFYAVMWK[dK]-OH), 12%.
Take `CSCC[C@H](NC(=O)[C@@H](NC(=O)[C@@H](NC(=O)[C@H](Cc1ccc(O)cc1)NC(=O)[C@H](C)NC(=O)[C@H](CCCNC(=N)N)NC(=O)[C@H](N)CCCCN)C(C)C)C(C)C)C(=O)N[C@@H](Cc1c[nH]c2ccccc12)C(=O)N[C@@H](CCCCN)C(=O)N[C@H](CCCCN)C(=O)O` (H-[dK]RAYVVMWK[dK]-OH): the Activity was found to be 6%.
Compound `CSCC[C@H](NC(=O)[C@@H](NC(=O)[C@@H](NC(=O)[C@H](Cc1ccc(O)cc1)NC(=O)[C@H](Cc1ccccc1)NC(=O)[C@@H](N)CCCNC(=N)N)C(C)C)C(C)C)C(=O)N[C@@H](Cc1c[nH]c2ccccc12)C(=O)N[C@@H](CCCCN)C(=O)O` returned an Activity of 13%.
Still for that read-out and setting: for `CSCC[C@H](NC(=O)[C@@H](NC(=O)[C@@H](NC(=O)[C@H](Cc1ccc(O)cc1)NC(=O)[C@H](Cc1ccccc1)NC(=O)[C@H](CCCNC(=N)N)NC(=O)[C@H](N)CCCCN)C(C)C)C(C)C)C(=O)N[C@@H](Cc1c[nH]c2ccccc12)C(=O)N[C@@H](C)C(=O)N[C@H](CCCCN)C(=O)O` (H-[dK]RFYVVMWA[dK]-OH) the value was 46%; for `CC(C)[C@H](NC(=O)[C@H](Cc1ccc(O)cc1)NC(=O)[C@H](Cc1ccccc1)NC(=O)[C@H](CCCNC(=N)N)NC(=O)[C@H](N)CCCCN)C(=O)N[C@H](C(=O)N[C@@H](C)C(=O)N[C@@H](Cc1c[nH]c2ccccc12)C(=O)N[C@@H](CCCCN)C(=O)N[C@H](CCCCN)C(=O)O)C(C)C` (H-[dK]RFYVVAWK[dK]-OH), 6%.
The same measure, in the same setting: the same measure for H-KRFYGGMWKK-OH: 2%; for `CSCC[C@H](NC(=O)[C@@H](NC(=O)[C@@H](NC(=O)[C@H](Cc1ccc(O)cc1)NC(=O)[C@H](Cc1ccccc1)NC(=O)[C@H](CCCNC(=N)N)NC(=O)[C@H](N)CCCCN)C(C)C)C(C)C)C(=O)N[C@@H](C)C(=O)N[C@@H](CCCCN)C(=O)N[C@H](CCCCN)C(=O)O` (H-[dK]RFYVVMAK[dK]-OH): 35%; for `CSCC[C@H](NC(=O)[C@@H](NC(=O)[C@@H](NC(=O)[C@H](Cc1ccc(O)cc1)NC(=O)[C@H](Cc1ccccc1)NC(=O)[C@H](C)NC(=O)[C@H](N)CCCCN)C(C)C)C(C)C)C(=O)N[C@@H](Cc1c[nH]c2ccccc12)C(=O)N[C@@H](CCCCN)C(=O)N[C@H](CCCCN)C(=O)O` (H-[dK]AFYVVMWK[dK]-OH): 44%.

These data come from ChEMBL document CHEMBL3853322, “Thrombospondin-1 Mimetic Agonist Peptides Induce Selective Death in Tumor Cells: Design, Synthesis, and Structure-Activity Relationship Studies” (J Med Chem, 2016).
